Read-outs that look alike come from different tables or passages of the source.
Tests used:
ABL2 (Arg) = target: T1, ABL2 (Arg) (Homo sapiens, UniProt P42684); test: Kinase panel profiling: ABL2; type: biochemical; settings: ATP equal to KM
T1 construct: purchased Thermo Fisher Scientific (Invitrogen) SelectScreen (Z'-LYTE)

CHEK1 (CHK1) = target: T2, CHEK1 (CHK1) (Homo sapiens, UniProt O14757); test: Kinase panel profiling: CHEK1; type: biochemical; settings: ATP equal to KM
T2 construct: purchased Thermo Fisher Scientific (Invitrogen) SelectScreen (Z'-LYTE)
T2 sequence (O14757 1-476): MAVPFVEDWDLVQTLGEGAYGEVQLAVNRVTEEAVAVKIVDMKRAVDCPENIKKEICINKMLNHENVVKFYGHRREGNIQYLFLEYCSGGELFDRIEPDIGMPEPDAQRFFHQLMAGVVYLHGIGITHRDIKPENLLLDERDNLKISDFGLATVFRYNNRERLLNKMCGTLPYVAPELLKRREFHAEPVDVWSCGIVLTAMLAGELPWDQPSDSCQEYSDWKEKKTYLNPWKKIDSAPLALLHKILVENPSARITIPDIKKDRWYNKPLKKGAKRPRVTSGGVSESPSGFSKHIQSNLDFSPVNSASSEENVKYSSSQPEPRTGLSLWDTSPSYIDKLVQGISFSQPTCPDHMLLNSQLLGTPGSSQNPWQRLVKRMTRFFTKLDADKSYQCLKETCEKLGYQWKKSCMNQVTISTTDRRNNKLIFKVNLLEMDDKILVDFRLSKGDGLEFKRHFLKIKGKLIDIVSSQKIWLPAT

YES1 = YES1 (Homo sapiens, UniProt P07947); test: Kinase panel profiling: YES1; type: biochemical; settings: ATP equal to KM
Chain of YES1 (P07947 whole entry): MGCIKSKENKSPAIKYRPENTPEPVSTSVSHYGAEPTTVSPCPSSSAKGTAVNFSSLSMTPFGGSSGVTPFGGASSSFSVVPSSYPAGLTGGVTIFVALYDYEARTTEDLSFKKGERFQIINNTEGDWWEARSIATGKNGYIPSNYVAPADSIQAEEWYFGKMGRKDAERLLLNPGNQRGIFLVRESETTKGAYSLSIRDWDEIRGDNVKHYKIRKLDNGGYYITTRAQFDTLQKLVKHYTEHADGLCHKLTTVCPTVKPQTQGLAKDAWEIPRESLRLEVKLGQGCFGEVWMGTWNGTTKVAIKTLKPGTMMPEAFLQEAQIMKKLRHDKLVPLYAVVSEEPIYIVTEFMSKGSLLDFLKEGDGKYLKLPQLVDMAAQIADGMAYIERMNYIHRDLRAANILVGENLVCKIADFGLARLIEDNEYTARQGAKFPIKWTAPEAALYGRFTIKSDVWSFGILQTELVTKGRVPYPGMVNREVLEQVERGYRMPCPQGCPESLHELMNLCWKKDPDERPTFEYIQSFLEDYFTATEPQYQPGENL

cKIT kinase = target: T3, cKIT kinase (Homo sapiens, UniProt P10721); test: KIT inhibition (KD), TR-FRET tracer displacement; type: binding; settings: kinase tracer 236, anti-GST antibody Eu-conjugate, read-out: KIT enz. KD
T3 construct: purchased Carna Biosciences
T3 sequence (P10721 26-976): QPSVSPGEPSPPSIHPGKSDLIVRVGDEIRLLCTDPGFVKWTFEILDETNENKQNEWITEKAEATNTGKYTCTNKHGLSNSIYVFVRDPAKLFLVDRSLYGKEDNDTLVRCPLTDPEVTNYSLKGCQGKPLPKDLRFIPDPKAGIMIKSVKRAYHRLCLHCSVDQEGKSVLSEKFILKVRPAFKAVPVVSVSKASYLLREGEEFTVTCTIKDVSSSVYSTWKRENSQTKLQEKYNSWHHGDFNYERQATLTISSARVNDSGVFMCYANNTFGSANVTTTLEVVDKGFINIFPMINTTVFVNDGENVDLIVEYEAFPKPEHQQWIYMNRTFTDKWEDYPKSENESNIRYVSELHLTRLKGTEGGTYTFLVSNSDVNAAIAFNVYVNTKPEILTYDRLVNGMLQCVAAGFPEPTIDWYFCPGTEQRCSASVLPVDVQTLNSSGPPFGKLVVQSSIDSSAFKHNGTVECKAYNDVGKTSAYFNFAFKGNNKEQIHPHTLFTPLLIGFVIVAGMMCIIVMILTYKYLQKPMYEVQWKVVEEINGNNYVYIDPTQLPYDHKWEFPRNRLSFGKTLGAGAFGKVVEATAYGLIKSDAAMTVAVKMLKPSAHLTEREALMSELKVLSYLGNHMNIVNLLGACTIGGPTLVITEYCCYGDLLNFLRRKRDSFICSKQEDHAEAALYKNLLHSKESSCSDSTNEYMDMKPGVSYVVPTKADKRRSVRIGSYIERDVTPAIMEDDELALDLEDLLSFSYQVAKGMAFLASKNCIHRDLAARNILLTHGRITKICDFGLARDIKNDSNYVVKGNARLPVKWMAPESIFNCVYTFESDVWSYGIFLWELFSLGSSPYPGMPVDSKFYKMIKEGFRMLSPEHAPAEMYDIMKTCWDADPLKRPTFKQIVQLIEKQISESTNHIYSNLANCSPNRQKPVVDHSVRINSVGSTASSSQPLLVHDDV

[1] = Human liver microsome intrinsic clearance, Phase I; type: in vitro ADME; settings: in vitro intrinsic clearance
LTK (TYK1) = target: T4, LTK (TYK1) (Homo sapiens, UniProt P29376); test: Kinase panel profiling: LTK; type: biochemical; settings: ATP equal to KM
T4 construct: purchased Thermo Fisher Scientific (Invitrogen) SelectScreen (Z'-LYTE)

BLK = target: T5, BLK (Homo sapiens, UniProt P51451); test: Kinase panel profiling: BLK; type: biochemical; settings: ATP equal to KM
T5 construct: purchased Thermo Fisher Scientific (Invitrogen) SelectScreen (Z'-LYTE)
T5 sequence (P51451 whole entry): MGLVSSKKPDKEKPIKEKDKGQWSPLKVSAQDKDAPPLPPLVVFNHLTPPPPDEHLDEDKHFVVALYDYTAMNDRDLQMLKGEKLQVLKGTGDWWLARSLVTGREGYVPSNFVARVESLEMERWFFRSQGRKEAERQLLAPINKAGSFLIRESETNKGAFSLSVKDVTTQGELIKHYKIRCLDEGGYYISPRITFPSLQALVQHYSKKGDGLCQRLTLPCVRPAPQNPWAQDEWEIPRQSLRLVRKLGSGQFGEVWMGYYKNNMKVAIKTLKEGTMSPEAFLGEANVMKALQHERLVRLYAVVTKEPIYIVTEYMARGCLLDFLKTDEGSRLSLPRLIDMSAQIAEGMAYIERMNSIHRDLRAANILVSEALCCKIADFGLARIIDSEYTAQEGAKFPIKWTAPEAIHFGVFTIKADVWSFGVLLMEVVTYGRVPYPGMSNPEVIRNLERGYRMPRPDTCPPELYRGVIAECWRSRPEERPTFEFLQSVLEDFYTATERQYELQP

EGFR (ErbB1) = target: T6, EGFR (ErbB1) (Homo sapiens, UniProt P00533); test: Kinase panel profiling: EGFR; type: biochemical; settings: ATP equal to KM
T6 construct: purchased Thermo Fisher Scientific (Invitrogen) SelectScreen (Z'-LYTE)

AURKB (Aurora B) = target: T7, AURKB (Aurora B) (Homo sapiens, UniProt Q96GD4); test: Kinase panel profiling: AURKB; type: biochemical; settings: ATP equal to KM
T7 construct: purchased Thermo Fisher Scientific (Invitrogen) SelectScreen (Z'-LYTE)
T7 sequence (Q96GD4 whole entry): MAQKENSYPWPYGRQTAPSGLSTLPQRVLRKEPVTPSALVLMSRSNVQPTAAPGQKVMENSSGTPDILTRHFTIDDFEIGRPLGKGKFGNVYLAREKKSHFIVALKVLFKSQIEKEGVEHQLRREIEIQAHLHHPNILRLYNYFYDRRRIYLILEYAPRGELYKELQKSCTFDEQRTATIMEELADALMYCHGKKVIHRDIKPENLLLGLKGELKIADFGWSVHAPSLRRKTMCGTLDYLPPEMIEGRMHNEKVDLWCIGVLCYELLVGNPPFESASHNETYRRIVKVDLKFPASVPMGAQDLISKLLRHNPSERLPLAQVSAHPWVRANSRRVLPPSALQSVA

EPHA2 = target: T8, EPHA2 (Homo sapiens, UniProt P29317); test: Kinase panel profiling: EPHA2; type: biochemical; settings: ATP equal to KM
T8 construct: purchased Thermo Fisher Scientific (Invitrogen) SelectScreen (Z'-LYTE)
T8 sequence (P29317 24-976): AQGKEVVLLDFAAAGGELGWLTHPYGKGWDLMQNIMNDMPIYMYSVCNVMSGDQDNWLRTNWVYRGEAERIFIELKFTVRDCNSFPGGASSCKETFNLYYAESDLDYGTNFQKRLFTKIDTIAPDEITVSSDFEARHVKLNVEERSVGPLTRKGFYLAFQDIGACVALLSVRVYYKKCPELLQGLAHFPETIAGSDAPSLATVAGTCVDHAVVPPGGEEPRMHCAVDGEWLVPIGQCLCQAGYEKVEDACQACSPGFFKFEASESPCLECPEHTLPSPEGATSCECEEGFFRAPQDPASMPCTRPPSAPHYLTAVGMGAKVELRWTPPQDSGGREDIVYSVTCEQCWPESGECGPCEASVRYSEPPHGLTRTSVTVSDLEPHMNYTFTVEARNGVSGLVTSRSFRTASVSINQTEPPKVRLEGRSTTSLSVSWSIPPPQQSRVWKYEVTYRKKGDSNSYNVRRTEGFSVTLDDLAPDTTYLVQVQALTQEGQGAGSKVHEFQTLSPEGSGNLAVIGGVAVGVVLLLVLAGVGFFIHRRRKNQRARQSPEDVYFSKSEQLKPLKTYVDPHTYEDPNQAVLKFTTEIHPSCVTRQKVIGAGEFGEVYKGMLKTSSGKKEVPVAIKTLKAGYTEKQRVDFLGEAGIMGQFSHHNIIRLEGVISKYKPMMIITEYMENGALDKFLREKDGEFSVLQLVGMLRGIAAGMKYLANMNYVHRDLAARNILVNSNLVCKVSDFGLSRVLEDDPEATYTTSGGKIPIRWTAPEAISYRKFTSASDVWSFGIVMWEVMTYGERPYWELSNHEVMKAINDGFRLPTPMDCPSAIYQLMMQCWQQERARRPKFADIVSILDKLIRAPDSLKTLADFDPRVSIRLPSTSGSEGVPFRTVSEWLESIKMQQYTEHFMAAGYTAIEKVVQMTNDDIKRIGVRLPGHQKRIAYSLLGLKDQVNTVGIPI

FRAP1 (mTOR) = target: T9, FRAP1 (mTOR) (Homo sapiens, UniProt P42345); test: Kinase panel profiling: FRAP1; type: biochemical; settings: ATP equal to KM
T9 construct: purchased Thermo Fisher Scientific (Invitrogen) SelectScreen (Z'-LYTE)

ERBB2 (HER2) = target: T10, ERBB2 (HER2) (Homo sapiens, UniProt P04626); test: Kinase panel profiling: ERBB2; type: biochemical; settings: ATP equal to KM
T10 construct: purchased Thermo Fisher Scientific (Invitrogen) SelectScreen (Z'-LYTE)
T10 sequence (P04626 23-1255): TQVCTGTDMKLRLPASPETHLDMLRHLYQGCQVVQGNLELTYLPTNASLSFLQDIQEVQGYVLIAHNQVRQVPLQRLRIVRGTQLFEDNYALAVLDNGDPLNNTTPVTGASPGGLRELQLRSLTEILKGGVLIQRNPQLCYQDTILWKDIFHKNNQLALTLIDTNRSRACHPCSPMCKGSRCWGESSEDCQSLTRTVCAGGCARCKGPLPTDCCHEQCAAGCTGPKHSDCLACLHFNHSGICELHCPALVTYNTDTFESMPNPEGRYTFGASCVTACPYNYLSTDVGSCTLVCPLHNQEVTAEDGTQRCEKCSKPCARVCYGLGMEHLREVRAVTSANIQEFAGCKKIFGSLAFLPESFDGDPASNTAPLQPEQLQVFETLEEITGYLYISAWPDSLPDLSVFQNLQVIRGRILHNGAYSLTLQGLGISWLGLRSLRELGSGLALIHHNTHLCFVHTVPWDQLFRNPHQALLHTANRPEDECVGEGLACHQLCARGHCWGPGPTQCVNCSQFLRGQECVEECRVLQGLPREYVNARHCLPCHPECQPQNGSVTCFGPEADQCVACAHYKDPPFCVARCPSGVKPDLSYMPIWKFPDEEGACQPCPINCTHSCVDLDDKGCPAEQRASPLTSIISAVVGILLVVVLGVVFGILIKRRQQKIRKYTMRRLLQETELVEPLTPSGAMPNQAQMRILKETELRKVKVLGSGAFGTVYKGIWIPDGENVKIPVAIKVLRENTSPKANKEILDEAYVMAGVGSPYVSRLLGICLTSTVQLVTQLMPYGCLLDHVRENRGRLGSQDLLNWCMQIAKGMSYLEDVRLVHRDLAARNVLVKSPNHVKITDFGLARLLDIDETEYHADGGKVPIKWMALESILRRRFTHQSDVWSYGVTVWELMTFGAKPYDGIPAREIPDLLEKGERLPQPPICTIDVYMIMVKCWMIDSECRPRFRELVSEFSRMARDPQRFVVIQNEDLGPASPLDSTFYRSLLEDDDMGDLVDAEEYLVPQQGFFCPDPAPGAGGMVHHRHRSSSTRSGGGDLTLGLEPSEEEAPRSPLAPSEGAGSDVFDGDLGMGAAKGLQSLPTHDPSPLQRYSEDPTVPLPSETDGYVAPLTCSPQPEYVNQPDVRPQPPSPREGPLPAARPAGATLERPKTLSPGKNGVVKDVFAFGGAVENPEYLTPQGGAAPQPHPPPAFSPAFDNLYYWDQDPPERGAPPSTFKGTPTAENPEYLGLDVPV

KIT = target: T11, KIT (Homo sapiens, UniProt P10721); test: Kinase panel profiling: KIT; type: biochemical; settings: ATP equal to KM
T11 construct: purchased Thermo Fisher Scientific (Invitrogen) SelectScreen (Z'-LYTE)
T11 sequence (P10721 26-976): as the sequence (P10721 26-976) above

[2] = 1000 nM test concentration, read-out: Average inhibition (%)
[3] = 1000 nM, first data point, read-out: Inhibition (%)
[4] = 1000 nM, second data point, read-out: Inhibition (%)

**Q.** What does the source list for `Cc1cccc(CN(C)c2ncnc3[nH]c(-c4cn(Cc5cccnc5)nn4)cc23)c1` [Compound 27a, N-Methyl-N-(3-methylbenzyl)-6-(1-(pyridin-3-ylmethyl)-1H-1,2,3-triazol-4-yl)-7H-pyrrolo[2,3-d]pyrimidin-4-amine]?
**A.** inhibition at 1 µM (ABL2 (Arg); [2]): 100%; inhibition at 1 µM (ABL2 (Arg); [3]): 100%; inhibition at 1 µM (CHEK1 (CHK1); [2]): 5%; inhibition at 1 µM (CHEK1 (CHK1); [3]): 0%; inhibition at 1 µM (CHEK1 (CHK1); [4]): 9%; inhibition at 1 µM (YES1; [2]): 101%; inhibition at 1 µM (YES1; [3]): 102%; inhibition at 1 µM (YES1; [4]): 99%; Kd (cKIT kinase): 793 nM; HLM [1]: 53.7 µL/min/mg; inhibition at 1 µM (LTK (TYK1); [2]): 25%; inhibition at 1 µM (LTK (TYK1); [3]): 25%; inhibition at 1 µM (BLK; [2]): 69%; inhibition at 1 µM (BLK; [3]): 69%; inhibition at 1 µM (EGFR (ErbB1); [2]): 85%; inhibition at 1 µM (EGFR (ErbB1); [3]): 84%; inhibition at 1 µM (EGFR (ErbB1); [4]): 87%; inhibition at 1 µM (AURKB (Aurora B); [2]): 47%; inhibition at 1 µM (AURKB (Aurora B); [3]): 47%; inhibition at 1 µM (AURKB (Aurora B); [4]): 46%; inhibition at 1 µM (EPHA2; [2]): 89%; inhibition at 1 µM (EPHA2; [3]): 88%; inhibition at 1 µM (EPHA2; [4]): 91%; inhibition at 1 µM (FRAP1 (mTOR); [2]): -3%; inhibition at 1 µM (FRAP1 (mTOR); [3]): -4%; inhibition at 1 µM (FRAP1 (mTOR); [4]): -2%; inhibition at 1 µM (ERBB2 (HER2); [2]): 32%; inhibition at 1 µM (ERBB2 (HER2); [3]): 33%; inhibition at 1 µM (ERBB2 (HER2); [4]): 32%; inhibition at 1 µM (KIT; [2]): 57%; inhibition at 1 µM (KIT; [3]): 56%; inhibition at 1 µM (KIT; [4]): 58%

Source: article PMC12196347, “Evaluating Triazole-Substituted Pyrrolopyrimidines as CSF1R Inhibitors” (Molecules, 2025)
